The values below come from ChEMBL document CHEMBL5465560, “Selectivity Literature for EUbOPEN Chemogenomic Library” (2024).

For experiment [1], the target named is T1, Dual specificity mitogen-activated protein kinase kinase 6 (Homo sapiens) (UniProt P52564).
T1 sequence (whole entry): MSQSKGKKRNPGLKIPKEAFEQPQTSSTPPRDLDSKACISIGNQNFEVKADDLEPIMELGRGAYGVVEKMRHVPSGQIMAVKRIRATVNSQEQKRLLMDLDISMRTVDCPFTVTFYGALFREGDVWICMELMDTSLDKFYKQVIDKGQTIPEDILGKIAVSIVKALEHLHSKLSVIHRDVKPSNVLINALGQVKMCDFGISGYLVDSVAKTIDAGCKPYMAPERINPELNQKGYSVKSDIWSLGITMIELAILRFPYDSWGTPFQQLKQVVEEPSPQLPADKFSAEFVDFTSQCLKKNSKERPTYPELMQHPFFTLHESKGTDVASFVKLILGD
Briefly: Selectivity interaction (Kinase panel (KiNativ target engagement assay in Jurkat cells)) EUB0001635a MAP2K6. Type of experiment: cell-based. The following applies: Selectivity number of off-targets 0.0, Selectivity number of targets 233.0, Source Knowledge https://www.sciencedirect.com/science/article/pii/S2451945619300674?via%3Dihub, at 1 µM.

Experiment [2] has as its target T2, Cyclin-dependent kinase-like 2 (Homo sapiens) (UniProt Q92772).
T2 sequence (whole entry): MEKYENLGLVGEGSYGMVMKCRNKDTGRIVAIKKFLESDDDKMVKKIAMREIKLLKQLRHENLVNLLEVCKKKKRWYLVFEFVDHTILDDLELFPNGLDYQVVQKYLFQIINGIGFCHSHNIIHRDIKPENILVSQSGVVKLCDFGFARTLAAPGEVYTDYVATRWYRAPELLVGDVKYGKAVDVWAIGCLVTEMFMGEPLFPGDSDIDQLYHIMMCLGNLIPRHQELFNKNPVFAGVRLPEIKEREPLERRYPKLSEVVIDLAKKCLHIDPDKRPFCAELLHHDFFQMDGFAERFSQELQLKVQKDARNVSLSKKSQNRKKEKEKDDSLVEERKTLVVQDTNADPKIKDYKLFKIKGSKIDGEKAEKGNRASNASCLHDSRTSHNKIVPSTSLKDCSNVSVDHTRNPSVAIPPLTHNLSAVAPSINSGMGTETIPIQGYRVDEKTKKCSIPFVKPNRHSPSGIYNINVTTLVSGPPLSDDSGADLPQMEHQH
Briefly: Selectivity interaction (KinomeScan (DiscoverX)) EUB0000229b CDKL2. The following applies: at 10 µM.

The target of experiment [3] is Muscarinic acetylcholine receptor M4 (Homo sapiens) (UniProt P08173). The experiment is described as follows: Selectivity interaction (GPCR panel (PDSP screen)) EUB0001079a CHRM4. The following applies: at 10 µM.
The target of experiment [4] is Glutamate receptor ionotropic, NMDA 2B (Homo sapiens) (UniProt Q13224). The experiment is described as follows: Selectivity interaction (Panel of kinases, GPCRs, ion channels and transporters (enzymatic assay)) EUB0000266bCl GRIN2B.
In experiment [5] the target is Tyrosine-protein kinase Fer (Homo sapiens) (UniProt P16591). Briefly: Selectivity interaction (KinaseProfiler screening (Millipore)) EUB0000601a FER. The following applies: at 3 µM.
The target of experiment [6] is T3, Tyrosine-protein kinase JAK3 (Homo sapiens) (UniProt P52333).
T3 sequence (whole entry): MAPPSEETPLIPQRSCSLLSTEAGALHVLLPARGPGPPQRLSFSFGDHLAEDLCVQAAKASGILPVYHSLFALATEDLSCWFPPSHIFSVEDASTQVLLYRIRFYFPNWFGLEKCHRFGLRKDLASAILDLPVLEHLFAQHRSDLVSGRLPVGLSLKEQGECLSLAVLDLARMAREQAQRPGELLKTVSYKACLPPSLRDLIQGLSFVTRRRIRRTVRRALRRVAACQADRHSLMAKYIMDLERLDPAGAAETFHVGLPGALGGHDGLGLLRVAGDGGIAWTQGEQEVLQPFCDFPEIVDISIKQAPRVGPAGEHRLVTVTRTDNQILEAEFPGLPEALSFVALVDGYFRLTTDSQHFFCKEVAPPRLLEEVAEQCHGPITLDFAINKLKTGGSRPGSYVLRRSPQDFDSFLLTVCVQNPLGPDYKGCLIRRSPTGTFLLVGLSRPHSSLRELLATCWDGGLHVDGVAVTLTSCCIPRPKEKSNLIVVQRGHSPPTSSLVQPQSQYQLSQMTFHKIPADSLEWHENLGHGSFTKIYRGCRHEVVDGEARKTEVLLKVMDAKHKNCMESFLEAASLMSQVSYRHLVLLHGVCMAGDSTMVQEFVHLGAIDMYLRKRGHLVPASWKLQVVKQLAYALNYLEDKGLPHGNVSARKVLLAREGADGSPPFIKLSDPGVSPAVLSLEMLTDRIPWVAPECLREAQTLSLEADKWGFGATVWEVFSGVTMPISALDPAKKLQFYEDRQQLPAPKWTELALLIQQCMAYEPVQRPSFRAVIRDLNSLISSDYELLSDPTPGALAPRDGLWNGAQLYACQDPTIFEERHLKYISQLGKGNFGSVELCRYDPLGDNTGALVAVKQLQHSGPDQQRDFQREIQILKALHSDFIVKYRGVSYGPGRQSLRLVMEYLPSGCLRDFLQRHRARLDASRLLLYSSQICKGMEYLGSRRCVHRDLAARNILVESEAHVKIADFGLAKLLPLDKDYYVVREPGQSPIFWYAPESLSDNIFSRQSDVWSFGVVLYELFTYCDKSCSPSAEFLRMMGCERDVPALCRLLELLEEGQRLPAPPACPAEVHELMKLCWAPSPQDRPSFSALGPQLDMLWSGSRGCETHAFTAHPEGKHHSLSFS
Briefly: Selectivity interaction (KinomeScan (DiscoverX)) EUB0001619a JAK3. The following applies: at 1 µM.

Experiment [7] deals with Cyclin-dependent kinase 17 (Homo sapiens) (UniProt Q00537). The experiment is described as follows: Selectivity interaction (ActivX KiNativ screen (kinase selectivity in THP-1 cell lysates)) EUB0000639a CDK17. The format is subcellular. The following applies: lysate.
Experiment [8] deals with RAC-beta serine/threonine-protein kinase (Homo sapiens) (UniProt P31751). The experiment is described as follows: Selectivity interaction (Kinase screening (Nanosyn)) EUB0000604a AKT2.
The subject of experiment [9] is CDK12/Cyclin K (Homo sapiens), O75909+Q9NYV4 [R722C]. Briefly: (§1) Selectivity interaction (ProQinase) EUB0000171b CDK12. The following applies: at 5 µM. The format is protein-complex assay.
The target in experiment [10] is CDK12/Cyclin K (Homo sapiens) (UniProt O75909+Q9NYV4). The experiment is described as §1. Type of experiment: protein-complex assay.

Structures are written as SMILES. Some results are limits rather than exact numbers.

Cyclin-dependent kinase 17 (Homo sapiens), sequence (Q00537 whole entry, looked up): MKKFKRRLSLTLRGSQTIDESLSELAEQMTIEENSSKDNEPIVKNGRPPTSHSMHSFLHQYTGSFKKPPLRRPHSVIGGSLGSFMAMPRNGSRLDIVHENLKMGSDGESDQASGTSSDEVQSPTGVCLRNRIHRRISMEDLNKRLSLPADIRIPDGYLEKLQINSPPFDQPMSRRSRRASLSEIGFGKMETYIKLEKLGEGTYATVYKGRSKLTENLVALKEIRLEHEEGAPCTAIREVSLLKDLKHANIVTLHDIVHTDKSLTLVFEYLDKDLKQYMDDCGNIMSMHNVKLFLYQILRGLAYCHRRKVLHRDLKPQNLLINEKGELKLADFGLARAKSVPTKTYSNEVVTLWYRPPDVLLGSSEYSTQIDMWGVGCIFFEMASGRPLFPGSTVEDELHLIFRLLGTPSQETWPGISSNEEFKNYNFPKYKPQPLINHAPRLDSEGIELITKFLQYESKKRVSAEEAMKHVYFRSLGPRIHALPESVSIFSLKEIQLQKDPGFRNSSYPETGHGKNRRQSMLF
CDK12/Cyclin K (Homo sapiens), sequence (O75909 whole entry, looked up): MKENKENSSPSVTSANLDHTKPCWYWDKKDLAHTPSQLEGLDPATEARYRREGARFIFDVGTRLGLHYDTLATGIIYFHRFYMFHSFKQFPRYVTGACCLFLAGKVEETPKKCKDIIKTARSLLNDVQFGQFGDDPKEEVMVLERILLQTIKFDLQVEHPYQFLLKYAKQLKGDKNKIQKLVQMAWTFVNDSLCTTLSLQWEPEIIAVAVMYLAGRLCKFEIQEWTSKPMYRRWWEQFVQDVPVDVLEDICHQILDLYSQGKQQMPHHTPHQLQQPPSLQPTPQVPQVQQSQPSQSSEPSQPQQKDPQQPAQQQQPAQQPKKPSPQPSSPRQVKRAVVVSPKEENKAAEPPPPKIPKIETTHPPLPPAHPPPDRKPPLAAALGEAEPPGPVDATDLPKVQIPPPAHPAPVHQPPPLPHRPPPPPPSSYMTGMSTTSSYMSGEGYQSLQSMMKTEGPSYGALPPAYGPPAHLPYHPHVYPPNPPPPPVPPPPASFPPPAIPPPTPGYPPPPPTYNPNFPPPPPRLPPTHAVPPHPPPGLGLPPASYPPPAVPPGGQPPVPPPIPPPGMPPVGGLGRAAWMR
CDK12/Cyclin K (Homo sapiens), sequence (Q9NYV4 whole entry, looked up): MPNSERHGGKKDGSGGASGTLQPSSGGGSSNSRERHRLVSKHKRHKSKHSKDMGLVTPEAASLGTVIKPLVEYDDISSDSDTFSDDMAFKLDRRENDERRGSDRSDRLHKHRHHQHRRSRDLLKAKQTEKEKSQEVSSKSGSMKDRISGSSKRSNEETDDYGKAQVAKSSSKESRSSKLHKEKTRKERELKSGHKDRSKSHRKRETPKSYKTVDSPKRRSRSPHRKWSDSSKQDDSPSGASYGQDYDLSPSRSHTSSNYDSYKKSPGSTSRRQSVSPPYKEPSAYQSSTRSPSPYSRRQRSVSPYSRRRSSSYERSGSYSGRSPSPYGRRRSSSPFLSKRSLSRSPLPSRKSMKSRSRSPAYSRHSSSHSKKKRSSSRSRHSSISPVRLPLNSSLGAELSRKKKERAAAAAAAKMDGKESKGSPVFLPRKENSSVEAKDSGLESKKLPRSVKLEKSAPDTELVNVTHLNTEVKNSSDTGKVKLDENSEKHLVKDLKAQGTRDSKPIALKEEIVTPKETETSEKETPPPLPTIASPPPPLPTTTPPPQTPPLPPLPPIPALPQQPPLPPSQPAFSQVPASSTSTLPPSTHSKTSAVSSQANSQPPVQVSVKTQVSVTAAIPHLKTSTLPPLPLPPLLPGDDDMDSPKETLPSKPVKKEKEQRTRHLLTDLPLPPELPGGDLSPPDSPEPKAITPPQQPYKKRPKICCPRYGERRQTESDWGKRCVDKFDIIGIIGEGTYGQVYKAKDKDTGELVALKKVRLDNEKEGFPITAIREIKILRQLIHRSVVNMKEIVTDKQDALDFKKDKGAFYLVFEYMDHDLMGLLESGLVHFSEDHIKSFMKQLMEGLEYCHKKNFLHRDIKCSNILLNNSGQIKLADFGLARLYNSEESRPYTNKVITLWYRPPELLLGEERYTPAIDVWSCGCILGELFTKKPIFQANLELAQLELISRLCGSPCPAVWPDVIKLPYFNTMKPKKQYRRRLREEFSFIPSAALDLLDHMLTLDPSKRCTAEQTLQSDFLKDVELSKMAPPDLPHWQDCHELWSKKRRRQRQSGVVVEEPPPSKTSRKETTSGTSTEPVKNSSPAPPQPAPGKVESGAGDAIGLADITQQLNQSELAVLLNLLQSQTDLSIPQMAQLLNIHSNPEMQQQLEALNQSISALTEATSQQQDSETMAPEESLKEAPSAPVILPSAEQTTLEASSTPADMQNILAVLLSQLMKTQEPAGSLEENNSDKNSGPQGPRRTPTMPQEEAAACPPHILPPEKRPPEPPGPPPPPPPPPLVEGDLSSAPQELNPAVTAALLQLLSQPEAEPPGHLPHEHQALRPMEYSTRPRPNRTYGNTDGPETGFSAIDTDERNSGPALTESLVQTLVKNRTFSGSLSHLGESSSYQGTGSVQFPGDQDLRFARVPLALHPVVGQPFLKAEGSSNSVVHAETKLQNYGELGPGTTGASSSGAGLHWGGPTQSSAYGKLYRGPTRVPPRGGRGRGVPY
Glutamate receptor ionotropic, NMDA 2B (Homo sapiens), sequence (Q13224 27-1484 limits assumed): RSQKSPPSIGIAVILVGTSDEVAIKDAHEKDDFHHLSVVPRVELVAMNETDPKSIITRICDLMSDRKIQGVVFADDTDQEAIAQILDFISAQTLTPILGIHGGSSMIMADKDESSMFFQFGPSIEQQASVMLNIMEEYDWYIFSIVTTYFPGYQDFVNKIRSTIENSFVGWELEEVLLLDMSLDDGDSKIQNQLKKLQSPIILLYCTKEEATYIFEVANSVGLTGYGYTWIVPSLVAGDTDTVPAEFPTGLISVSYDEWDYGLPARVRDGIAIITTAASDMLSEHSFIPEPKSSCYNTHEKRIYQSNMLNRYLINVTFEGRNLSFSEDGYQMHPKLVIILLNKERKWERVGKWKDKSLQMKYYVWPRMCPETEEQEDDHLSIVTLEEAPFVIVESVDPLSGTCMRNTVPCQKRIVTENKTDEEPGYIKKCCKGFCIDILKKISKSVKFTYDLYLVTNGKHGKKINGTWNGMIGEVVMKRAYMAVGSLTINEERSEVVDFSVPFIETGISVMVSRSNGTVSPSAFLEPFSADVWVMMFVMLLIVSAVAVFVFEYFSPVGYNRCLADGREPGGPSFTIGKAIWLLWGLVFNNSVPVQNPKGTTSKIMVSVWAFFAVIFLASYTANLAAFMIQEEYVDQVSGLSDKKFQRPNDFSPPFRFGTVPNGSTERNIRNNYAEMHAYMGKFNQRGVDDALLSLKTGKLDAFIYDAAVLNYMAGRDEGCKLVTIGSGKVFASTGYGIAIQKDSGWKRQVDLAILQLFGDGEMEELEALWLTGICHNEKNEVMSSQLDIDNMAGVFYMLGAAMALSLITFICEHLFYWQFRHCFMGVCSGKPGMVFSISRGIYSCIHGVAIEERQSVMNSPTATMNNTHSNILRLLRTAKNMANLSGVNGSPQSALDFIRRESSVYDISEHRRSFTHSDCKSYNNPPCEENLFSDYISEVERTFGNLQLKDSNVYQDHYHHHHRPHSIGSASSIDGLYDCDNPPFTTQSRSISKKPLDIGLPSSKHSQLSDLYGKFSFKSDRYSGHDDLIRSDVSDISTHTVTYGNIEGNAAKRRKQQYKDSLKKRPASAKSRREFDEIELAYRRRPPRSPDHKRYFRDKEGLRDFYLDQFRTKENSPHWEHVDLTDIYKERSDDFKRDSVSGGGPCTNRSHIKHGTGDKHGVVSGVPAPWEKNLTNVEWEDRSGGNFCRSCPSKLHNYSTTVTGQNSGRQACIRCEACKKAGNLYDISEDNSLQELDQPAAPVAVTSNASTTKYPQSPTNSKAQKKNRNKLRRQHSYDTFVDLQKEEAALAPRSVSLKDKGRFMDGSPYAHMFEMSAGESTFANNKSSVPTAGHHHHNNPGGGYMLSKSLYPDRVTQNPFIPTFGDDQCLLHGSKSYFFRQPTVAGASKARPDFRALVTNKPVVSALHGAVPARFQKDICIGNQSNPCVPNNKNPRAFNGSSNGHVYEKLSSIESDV
Muscarinic acetylcholine receptor M4 (Homo sapiens), sequence (P08173 whole entry): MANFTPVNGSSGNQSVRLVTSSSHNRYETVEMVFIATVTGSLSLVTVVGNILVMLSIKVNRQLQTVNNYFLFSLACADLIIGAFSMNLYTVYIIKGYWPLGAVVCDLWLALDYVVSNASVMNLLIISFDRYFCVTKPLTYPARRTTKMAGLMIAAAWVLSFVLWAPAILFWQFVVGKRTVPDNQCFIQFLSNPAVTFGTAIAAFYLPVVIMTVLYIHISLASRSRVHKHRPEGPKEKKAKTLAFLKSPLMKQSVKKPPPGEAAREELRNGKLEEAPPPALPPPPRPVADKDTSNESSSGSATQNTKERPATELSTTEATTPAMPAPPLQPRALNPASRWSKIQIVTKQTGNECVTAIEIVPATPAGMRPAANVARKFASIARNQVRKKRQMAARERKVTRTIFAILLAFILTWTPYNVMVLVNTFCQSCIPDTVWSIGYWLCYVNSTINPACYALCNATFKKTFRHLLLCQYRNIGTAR
RAC-beta serine/threonine-protein kinase (Homo sapiens), sequence (P31751 whole entry): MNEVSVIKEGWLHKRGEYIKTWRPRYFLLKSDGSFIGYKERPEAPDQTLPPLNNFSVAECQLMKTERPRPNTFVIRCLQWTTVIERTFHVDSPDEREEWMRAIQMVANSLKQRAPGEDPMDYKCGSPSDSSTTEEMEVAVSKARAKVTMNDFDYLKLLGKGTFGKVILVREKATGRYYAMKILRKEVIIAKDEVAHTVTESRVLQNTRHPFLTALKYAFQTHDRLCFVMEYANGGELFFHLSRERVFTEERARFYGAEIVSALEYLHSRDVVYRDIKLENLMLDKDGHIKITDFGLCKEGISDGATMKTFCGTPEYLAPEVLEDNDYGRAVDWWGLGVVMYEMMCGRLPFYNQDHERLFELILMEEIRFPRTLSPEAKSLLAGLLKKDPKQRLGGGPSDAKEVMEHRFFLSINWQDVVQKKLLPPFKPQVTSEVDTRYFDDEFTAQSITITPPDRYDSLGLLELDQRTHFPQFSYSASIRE

Turning to `C=CC(=O)Nc1ccc(C(=O)Nc2[nH]nc3c2CN(C(=O)N[C@H](CN(C)C)c2ccccc2)C3(C)C)cc1`, the % of engagement in experiment [1] was -2.9%. The compound `COc1cc(N(C)c2ccnc3ccc(C(F)(F)F)cc23)cc(OC)c1OC` had a % binding in [2] of 90%.

For the compound `Nc1cnc(N2CCc3cc(S(=O)(=O)Nc4c(F)cc(Cl)cc4F)cc(N4CCCC4=O)c32)nc1` [TP-020n], the % of inhibition in experiment [3] was determined as 9.99%.

As to `CCn1c(-c2nc3cc(C(=O)N4CCCC(N)C4)ccc3n2C)cc2ccccc21` (stereo not given), the pXC50 in experiment [4] is less than 4.3 M. As to `CCc1cc(Nc2nccc(-c3c(-c4ccc(OC)c(C(=O)Nc5c(F)cccc5F)c4)nc4ccccn34)n2)c(OC)cc1N1CCC(N2CCN(S(C)(=O)=O)CC2)CC1`, the % of inhibition in experiment [5] came to 93%. In [6], `N#Cc1cccc(-c2c[nH]c3ncnc(N4CCOCC4)c23)c1` came in with a % of control of 2.7%. In the case of `CC[C@@H]1[C@H](F)C(=O)N[C@@H]1COc1nccc2cc(C(N)=O)c(OC)cc12` [ZIMLOVISERTIB], the % of inhibition in [7] (at 0.01 µM) is -4.8%; in [7] (at 0.04 µM), -2.9%; in [7] (at 0.2 µM), 2.8%; in [7] (at 1 µM), 6%; in experiment [7] (at 5 µM) it was 5.6%. For the compound `Cc1cnc(Nc2ccc(F)cc2Cl)nc1-c1c[nH]c(C(=O)N[C@H](CO)c2cccc(Cl)c2)c1`, the % of inhibition in experiment [8] was determined as 0%. In the case of `C=CC(=O)Nc1cccc(C(=O)Nc2ccc(Nc3cc(-c4[nH]c(SC)nc4C)ccn3)cc2)c1`, the % of control in experiment [9] amounted to 66%; in experiment [10] (at 1 µM) it was 93%; in experiment [10] (at 5 µM) it was 57%.
